Measured values published in patent US7014856B1, “Ganglioside-KLH conjugate vaccines plus OS-21” (Sloan-Kettering Institute for Cancer Research, priority 1993, dated 2006).
Where “and” joins values, the source holds several entries; their conditions need not be identical. Equal entries are not always repeated. Entries after “also recorded” stand apart in the source; their conditions may differ.

How the values were obtained:
patients = test: Toxicity in patients treated earlier with GM2 or GM2-KLH vaccines; format: in vivo, human
ganglioside GM2 = test: Peak antibody titer against ganglioside GM2 by ELISA (Table 2); format: in vivo, human; conditions: peak titer against GM2 after immunization
GM2 [1] = test: ELISA for GM2 antibodies in patients receiving GM2-KLH conjugate vaccines (third series); format: in vivo, human
Protocol: Four vaccinations were administered intradermally into extremities with intact lymphatic drainage at two-week intervals, followed by two additional vaccinations at eight week intervals. Cyclophosphamide (Cytoxan, Mead Johnson and Co., Evansville, Ind.) 200 mg/m2 was administered intravenously to all patients 4 to 6 days prior to the first vaccination.
(§1) ELISA was performed as previously described (6). To control for nonspecific “stickiness”, immune sera were also tested on plates which were processed identically but to which no ganglioside had been added, and the reading was subtracted from the value obtained in the presence of ganglioside. The titer was defined as the highest dilution yielding a corrected absorbance of 0.1 or greater. Immunostaining of gangliosides with monoclonal antibodies or human sera was performed after spotting on nitrocellulose strips (14) or separation on HPTLC silica gel glass plates as previously described (3). Plates were developed in chloroform/methanol/water (0.25% CaCl2) 50:40:10 (v/v), and gangliosides were visualized by staining with resorcinol/HCl reagent or monoclonal antibodies.

GM2 [2] = test: Dot blot immune stain for GM2 antibodies (third series); format: in vivo, human
Protocol: as §1

KLH [3] = test: ELISA for KLH antibodies (third series); format: in vivo, human
GM2 [4] = test: ELISA titer against GM2 (fourth series); format: in vivo, human
Protocol: (§2) Enzyme-linked Immunosorbent Assay (ELISA) were performed as previously described for gangliosides (5). […] The titer was defined as the highest dilution yielding a corrected absorbance of 0.1 or greater. Immunostaining of gangliosides with monoclonal antibodies or human sera was performed after spotting on nitrocellulose strips as previously described (22). […] Twenty-five micrograms of each were diluted in 0.05 ml PBS and administered intradermally. Results were interpreted as described previously (5).

GM2 [5] = test: Dot blot immune stain against GM2 (fourth series); format: in vivo, human; parameters: key: Reactions were graded 0, 1+, 2+ or 3+; Reactions were graded 0, 1+, 2+ or 3+; Reactions were graded 0, 1+, 2+ or 3+; Reactions were graded 0, 1+, 2+ or 3+
Protocol: as §2

KLH [6] = test: IgG ELISA titer against KLH (fourth series); format: in vivo, human; conditions: No adjuvant
Protocol: as §2

melanoma patients [7] = conditions: six patients per group
melanoma patients [8] = test: Delayed-type hypersensitivity skin tests with GM2, GM2-HSA and KLH; format: in vivo, human; conditions: 25 micrograms intradermally at the fifth vaccination; 24 and 48 hours
Protocol: as §2

T antigen-KLH = test: Preclinical adjuvant studies with KLH-conjugate vaccines such as T antigen-KLH; format: in vivo, mice
QS-21 = test: ELISA for antibodies to QS-21; format: in vivo, human; conditions: after immunizations
Protocol: as §2

melanoma patients [9] = conditions: outpatient setting, s.c. with GM2-KLH
Protocol: Melanoma patients with AJCC Stage III or IV disease were considered eligible if all evidence of metastatic disease had been rejected within the last 8 months. None of the patients had received prior chemotherapy or radiation therapy. Patients were evaluated for toxicity at the time of each vaccination. In addition, patients were instructed to measure local reactions and to take their temperature.
The GM2/KLH solar ratio was approximately 800/1 and was supplied at a concentration of 0.57 mg conjugate per 0.5 ml normal saline. This represented one patient dose and contained 70 ug GM2, 500 ug KLH and 0.5 ml normal saline. QS-21 adjuvant, containing a saponin component isolated from Quillaja saponaria Molina tree bark, was provided by Cambridge Biotech Corp. (Worcester, Mass.). The purity of the QS-21 was determined to be ≧98% by analytical reverse phase HPLC. […] The vaccine (final volume 0.75 ml) was vortexed for 2–3 minutes and administered within 15 min. Four vaccinations were administered subcutaneously at two week intervals followed by two more at eight week intervals. Initially 12 patients were treated, 3 at each of the 4 QS-21 doses. […] Cyclophosphamide (Cytoxan, Mead Johnson and Co., Evansville, Id.) 200 mg/M^2 was administered IV to all patients 3–6 days prior to the first vaccination.

[10] = system: mouse, cat and Rhesus monkey; conditions: doses as high as 125 ug per mouse; cited from earlier work

11^3NeuAc-GgOse3Cer-keyhole limpet hemocyanin (KLH) [GM2-KLH]
toxicity attributed to the substance (patients): pain and tenderness at vaccines sites lasting 48 hours
Antibody Titers by Elisa IgG (ganglioside GM2): 0
Reciprocal GM2 antibody titers before immunization IgG (GM2 [1]; before immunization): 0
median titers: reciprocal GM2 antibody titer after immunization (Peak) IgG (GM2 [1]; median, after immunization): 0
median titers: reciprocal GM2 antibody titer after immunization (Peak) IgM (GM2 [1]; median, after immunization): 80
median titers: reciprocal GM2 antibody titer before immunization IgG (GM2 [1]; median, before immunization): 0
median titers: reciprocal GM2 antibody titer before immunization IgM (GM2 [1]; median, before immunization): 0
patients with 3+ reactivity of IgM antibodies against GM2 (GM2 [2]): two of six
median titers: reciprocal KLH antibody titer after immunization (Peak) IgG (KLH [3]): 120
Reciprocal median IgM antibody titer against GM2 (GM2 [4]; GM2-KLH alone): 80
median IgG antibody titer against GM2 (GM2 [4]; GM2-KLH alone): 0
patients who produced IgM antibody (GM2 [4]; GM2-KLH alone): Five of 6
patients who produced IgG antibody (of low titer) (GM2 [4]; GM2-KLH alone, 6 patients): 1
PEAK ELISA TITER AGAINST GM2 Pretreatment IgG (GM2 [4]; No adjuvant): 0 (6)
induction of IgM and IgG antibody titers, 7 μg GM2 dose versus 70 μg dose (GM2 [4]; patients with advanced disease, 100 μg QS-21): equally as effective
median IgM dot blot reaction against GM2 (GM2 [5]; GM2-KLH alone): 2+
PEAK DOT BLOT IMMUNE SYSTEM RESPONSE AGAINST GM2 IgG (GM2 [5]; No adjuvant): 0 and 1+
PEAK DOT BLOT IMMUNE SYSTEM RESPONSE AGAINST GM2 IgM (GM2 [5]; No adjuvant): 2+ and 1+, and 0 and 3+,
median IgG dot blot reaction against GM2 (GM2 [5]; no QS-21): 0
IgG ELISA TITER AGAINST KLH Pretreatment (KLH [6]): 0 (6)
local or systemic side effects (melanoma patients [7]): No local or systemic toxicity

II^3NeuAc-GgOse3Cer [GM2, reference compound]
toxicity attributed to the substance (patients): No toxicity
reaction at skin test sites (melanoma patients [8]): No erythema or induration

QS-21
DTH (T antigen-KLH; mice): potent DTH
IgG antibody titers (T antigen-KLH; most mice, KLH-conjugate vaccine with QS-21): over 1/4000
antibodies against QS-21 (QS-21): No antibodies against QS-21 were detected; also recorded: no significant increase in antibody to QS-21
probable MTD per vaccination (melanoma patients [9]): 200 µg
toxicity [10]: no clear toxicity
